These results are taken from patent publication US10189777B2, “Benzenesulfonamido and related compounds for use as agonists of RORγ and the treatment of disease” (Lycera Corporation, priority 2014, dated 2019).

As a reminder, the EC50 is the concentration at which the effect is half-maximal.

For test [1], the target named is T1, Gal4-RORγ-LBD (Homo sapiens, UniProt P51449).
T1 construct: expressed in transfected cells
T1 sequence (P51449 269-508 limits assumed): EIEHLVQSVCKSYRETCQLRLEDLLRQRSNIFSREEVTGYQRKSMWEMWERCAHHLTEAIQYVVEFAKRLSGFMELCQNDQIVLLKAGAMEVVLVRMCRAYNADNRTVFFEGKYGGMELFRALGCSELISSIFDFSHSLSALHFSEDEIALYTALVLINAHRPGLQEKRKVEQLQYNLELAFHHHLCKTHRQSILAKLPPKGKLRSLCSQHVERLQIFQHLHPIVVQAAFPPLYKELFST
Put plainly: Gal4-RORγ Luciferase Reporter Assay in HEK-293T Cells. The settings on record: for EC50: HEK-293 cells, with 2 μM ursolic acid, incubated overnight, luciferase readout; for Gal4-RORγ Assay Max Response: upper plateau of 4-parameter fit, luciferase signal in the absence of ursolic acid or test compound defined at 100. The format is cell-based. As for the experimental part: (§1) Exemplary compounds from the above Examples were tested for ability to increase RORγ activity using (i) a RORγ-Ligand Binding Domain (LBD) TR-FRET Assay, and (ii) a Gal4-RORγ Luciferase Reporter Assay in HEK-293T Cells. Assay procedures and results are described below.
Part II—Procedures for Gal4-RORγ Luciferase Reporter Assay in HEK-293T Cells
Transfection of HEK-293 Cells
In the following protocol, HEK-293 cells were transfected with a construct comprising the Gal4 DNA binding domain fused to the ligand binding domain of RORγ (Gal4-RORγ-LBD) in a pcDNA3.1neo plasmid, and also with a reporter construct comprising pGL4.31 Gal4-luciferase (Promega). Control cells were prepared similarly using empty pcDNA3.1neo and pGL4.31 vectors.
Trans-IT reagent (Mirus, 60 μL) at room temperature was added drop wise to OptiMEM (Invitrogen, 1.5 ml). This reagent mixture was mixed by inversion then incubated for 5 to 30 minutes at room temperature. It then was added to a solution of both expression vectors (5 μg each), mixed, and incubated at room temperature for about 20 minutes. HEK-293 cells were harvested from incubation flasks by removing the media, treating with TrypLE Express (Invitrogen), and incubating until the cells detached from the bottom of the flask (approximately 2-5 minutes). 10 Million cells were collected by centrifugation and re-suspended in 10 mL of Dulbecco's Modified Eagle Medium, High Glucose (DMEM, Invitrogen) containing 10% Fetal Bovine Serum and 100 IU each of penicillin and streptomycin. The re-suspended cells and the transfection mixture were added to a T75 flask, mixed and incubated overnight at 37° C. and 5% CO2.
The cells were harvested as described above, counted, and centrifuged to obtain the desired number of cells, then re-suspended in complete growth media at 0.75×10^6 cells/mL. The RORγ antagonist, ursolic acid, was added to the cells at a final concentration of 2 μM. Cells were plated at 20 μL of cell suspension/well (10,000-15,000 cells/well) in white tissue culture treated 384 well plates. Test compounds were dissolved at 10 mM in DMSO then diluted into complete growth medium to 5× the final intended test concentration. These drug stock solutions, 5 μL/well were added to the tissue culture plate. The final DMSO concentration was 0.2%. The plates were briefly centrifuged then incubated overnight at 37° C. and 5% CO2. To conduct the assay, the tissue culture plates were allowed to equilibrate to room temperature and One-Glo luciferase reagent (Promega, 25 μL/well) was added. The plates were briefly centrifuged then incubated at room temperature for 10 minutes. The luciferase intensity was read on an Envision plate reader (Perkin Elmer). RORγ activity was determined relative to controls and plotted as a function of test compound concentration using PRISM (GraphPad) to determine a 50% effective concentration (EC50). The luciferase signal in the absence of ursolic acid or test compound is defined at 100. The Max Response is the upper plateau in the signal as determined by line-fit using a 4-parameter logistic model in PRISM (GraphPad).
On the technique in general: In a reporter assay the amount or activity of a reporter protein is the signal.

For test [2], the target named is T2, HIS-tagged RORγ-LBD protein (Homo sapiens, UniProt P51449).
T2 construct: made in house; host or cells: SF9 cells, baculovirus expression system; the lysate was used
T2 sequence (P51449 269-508 limits assumed): T1 sequence (P51449 269-508 limits assumed)
Put plainly: RORγ-Ligand Binding Domain (LBD) TR-FRET Assay. It counts as biochemical. The settings on record: for TR-FRET Assay Max Response: upper plateau of 4-parameter fit, signal in the absence of ursolic acid or test compound set as 100; for EC50: with 2 μM RORγ antagonist ursolic acid, biotinylated SRC1 LXXLL peptide, ratio 665 nm/615 nm. As for the experimental part: as §1
Part I—Procedures for RORγ-Ligand Binding Domain TR-FRET Assay
HIS-tagged RORγ-LBD protein was expressed in SF9 cells using a baculovirus expression system. The lysate was diluted in assay buffer (50 mM Tris pH 7.0, 50 mM KCl, 1 mM EDTA, 0.1 mM DTT, 0.01% BSA) to obtain RORγ-LBD final concentration of −3 nM in a 384-well assay plate (need to titrate for each batch of protein).
A stock of biotinylated-LXXLL peptide from coactivator SRC1 (Biotin-[…]) was prepared in assay buffer and added to each well (200 nM final concentration). A solution of Europium tagged anti-HIS antibody (0.6 nM final concentration) and APC-conjugated streptavidin (30 nM final concentration) were also added to each well. RORγ antagonist ursolic acid was also included at a final concentration of 2 μM. Compounds were diluted in DMSO and further diluted in assay buffer with a final DMSO concentration at 1%.
The final assay mixture was incubated overnight at 4° C. or 2 hours at room temperature, and the fluorescence signal was measured on an Envision plate reader: (Excitation filter=340 nm; APC emission=665 nm; Europium emission=615 nm; dichroic mirror=D400/D630; delay time=100 μs, integration time=200 μs). 50% Effective concentration (EC50) values for test compounds were calculated from the quotient of the fluorescence signal at 665 nm divided by the fluorescence signal at 615 nm. The quotient of the fluorescence signals in the absence of ursolic acid or test compound is set as 100. Max Response is defined as the upper plateau in the signal as determined by line-fit using a 4-parameter logistic model in PRISM (GraphPad).

The compound `CCOc1nn(CC)cc1S(=O)(=O)N(CC)c1cccc(OC2CCc3ccccc32)c1` (stereo not drawn) came in with an EC50 in test [1] of over 10 µM. Besides, in test [2], the “TR-FRET Assay Max Response” value is listed as “**** (The symbol “****” indicates a value greater than 200)” and the EC50 was 0.5 to 5 µM.
In the case of `CCN(c1cccc(OCc2cc(Cl)ccc2Cl)c1)S(=O)(=O)c1cccc(C(F)(F)F)c1`, in test [1], the EC50 was in the range of 5 to 10 µM and the “Gal4-RORγ Assay Max Response” value is given as “*** (The symbol “***” indicates a value in the range of greater than 150 to 200)”. In addition, in test [2], the “TR-FRET Assay Max Response” value is given as “**** (The symbol “****” indicates a value greater than 200)” and the EC50 was under 0.5 µM.
For `CCN(c1cccc(OCCc2c(Cl)cccc2Cl)c1)S(=O)(=O)c1cccc(C(F)(F)F)c1`, in that order: 0.5 to 5 µM, “** (The symbol “**” indicates a value in the range of greater than 90 to 150)”, “**** (The symbol “****” indicates a value greater than 200)” and 0.5 to 5 µM.
`CCN(c1cccc(OCc2c(F)cccc2OC)c1)S(=O)(=O)c1cccc(C(F)(F)F)c1` had an EC50 in test [1] of over 10 µM. Moreover, in test [2], the “TR-FRET Assay Max Response” value is “**** (The symbol “****” indicates a value greater than 200)” and the EC50 was under 0.5 µM.
For `CCN(c1cccc(OCc2c(F)cccc2C(F)(F)F)c1)S(=O)(=O)c1cccc(C(F)(F)F)c1`, in test [1], the EC50 lay within 0.5 to 5 µM and the “Gal4-RORγ Assay Max Response” value is on record as “** (The symbol “**” indicates a value in the range of greater than 90 to 150)”. Moreover, in test [2], the “TR-FRET Assay Max Response” value is reported as “**** (The symbol “****” indicates a value greater than 200)” and the EC50 was under 0.5 µM.
Turning to `CCC(c1ccc(OCc2c(F)cccc2Cl)cc1)S(=O)(=O)c1ccc(Cl)cc1` (stereo not drawn), in test [1], the EC50 was in the range of 0.5 to 5 µM and the “Gal4-RORγ Assay Max Response” value is listed as “* (The symbol “*” indicates a value in the range of 70 to 90)”. Besides, in test [2], the “TR-FRET Assay Max Response” value was “*** (The symbol “***” indicates a value in the range of greater than 150 to 200)” and the EC50 is under 0.5 µM.
For `CCC(c1ccc(OCc2c(F)cccc2Cl)cc1)S(=O)(=O)c1cccc(C(F)(F)F)c1` (stereo not drawn) the same measures were under 0.5 µM, “** (The symbol “**” indicates a value in the range of greater than 90 to 150)”, “*** (The symbol “***” indicates a value in the range of greater than 150 to 200)” and under 0.5 µM.
For `CCOc1nn(CC)cc1S(=O)(=O)N(CC)c1cccc(OCc2c(F)cccc2Cl)c1` the same measures were 0.5 to 5 µM, “** (The symbol “**” indicates a value in the range of greater than 90 to 150)”, “**** (The symbol “****” indicates a value greater than 200)” and 0.5 to 5 µM.
For `CCN(c1cccc(OC2CCc3cccc(F)c32)c1)S(=O)(=O)c1cccc(C(F)(F)F)c1` (stereo not drawn), in that order: over 10 µM, “**** (The symbol “****” indicates a value greater than 200)”, “*** (The symbol “***” indicates a value in the range of greater than 150 to 200)” and under 0.5 µM.
On to `CCN(c1cccc(OCc2c(Cl)cccc2Cl)c1)S(=O)(=O)c1cccc(C(F)(F)F)c1`, for which, in test [1], the EC50 is 0.5 to 5 µM and the “Gal4-RORγ Assay Max Response” value is “** (The symbol “**” indicates a value in the range of greater than 90 to 150)”. In addition, in test [2], the “TR-FRET Assay Max Response” value is recorded as “*** (The symbol “***” indicates a value in the range of greater than 150 to 200)” and the EC50 is under 0.5 µM.
As to `CCC(c1cccc(OCc2ccccc2)c1)S(=O)(=O)c1cccc(C(F)(F)F)c1` (stereo not drawn), in test [1], the half-maximal effective concentration (EC50) was 0.5 to 5 µM and the “Gal4-RORγ Assay Max Response” value is given as “* (The symbol “*” indicates a value in the range of 70 to 90)”. Further, in test [2], the “TR-FRET Assay Max Response” value is listed as “** (The symbol “**” indicates a value in the range of greater than 90 to 150)” and the EC50 lay within 5 to 10 µM.
